± gives the expanded uncertainty stated by the source.
Assay: activity coefficient (dimensionless); of the first substance listed, at infinite dilution; xn = mol fraction of the nth substance listed
Details: 101 kPa, Liquid, Chromatography, x1 = 0

SMILES | activity coefficient (328.15 K) | activity coefficient (338.15 K) | activity coefficient (348.15 K) | activity coefficient (358.15 K) | activity coefficient (368.15 K) | activity coefficient (308.15 K) | activity coefficient (318.15 K)
Cc1ccccc1C [1,2-dimethylbenzene] + CCCCCC[n+]1ccc2ccccc2c1.N#C[S-] | 2.35 ± 0.16 | 2.37 ± 0.16 | 2.41 ± 0.16 | 2.43 ± 0.17 | 2.45 ± 0.17 |  | 
Cc1cccc(C)c1 [1,3-dimethylbenzene] + CCCCCC[n+]1ccc2ccccc2c1.N#C[S-] | 2.9 ± 0.2 | 2.93 ± 0.2 | 2.96 ± 0.2 | 2.98 ± 0.2 | 3.01 ± 0.2 |  | 
Cc1ccc(C)cc1 [1,4-dimethylbenzene] + CCCCCC[n+]1ccc2ccccc2c1.N#C[S-] | 2.82 ± 0.19 | 2.85 ± 0.19 | 2.88 ± 0.2 | 2.9 ± 0.2 | 2.94 ± 0.2 |  | 
C1COCCO1 [1,4-dioxane] + CCCCCC[n+]1ccc2ccccc2c1.N#C[S-] | 1.23 ± 0.08 | 1.25 ± 0.08 | 1.27 ± 0.08 | 1.28 ± 0.08 | 1.31 ± 0.09 |  | 
C=CCCCCCCCC [1-decene] + CCCCCC[n+]1ccc2ccccc2c1.N#C[S-] | 46.3 ± 3.2 | 44.2 ± 3 | 42.5 ± 2.9 | 40.5 ± 2.8 | 39.1 ± 2.7 | 50.6 ± 3.5 | 48.1 ± 3.3
C=CCCCCC [1-heptene] + CCCCCC[n+]1ccc2ccccc2c1.N#C[S-] | 20.9 ± 1.4 | 19.5 ± 1.3 | 18.7 ± 1.3 | 17.7 ± 1.2 | 16.9 ± 1.2 | 23.5 ± 1.6 | 22 ± 1.5
C#CCCCCC [1-heptyne] + CCCCCC[n+]1ccc2ccccc2c1.N#C[S-] | 4.93 ± 0.34 | 5.02 ± 0.34 | 5.09 ± 0.35 | 5.16 ± 0.35 | 5.21 ± 0.36 | 4.77 ± 0.33 | 4.85 ± 0.33
C#CCCCC [1-hexyne] + CCCCCC[n+]1ccc2ccccc2c1.N#C[S-] | 3.71 ± 0.25 | 3.78 ± 0.26 | 3.83 ± 0.26 | 3.9 ± 0.27 | 3.96 ± 0.27 | 3.57 ± 0.24 | 3.64 ± 0.25
CCC[N+](=O)[O-] [1-nitropropane] + CCCCCC[n+]1ccc2ccccc2c1.N#C[S-] | 1.39 ± 0.09 | 1.38 ± 0.09 | 1.37 ± 0.09 | 1.37 ± 0.09 | 1.35 ± 0.09 |  | 
C#CCCCCCC [1-octyne] + CCCCCC[n+]1ccc2ccccc2c1.N#C[S-] | 6.52 ± 0.44 | 6.64 ± 0.45 | 6.71 ± 0.46 | 6.8 ± 0.46 | 6.87 ± 0.47 | 6.31 ± 0.43 | 6.43 ± 0.44
C=CCCC [1-pentene] + CCCCCC[n+]1ccc2ccccc2c1.N#C[S-] | 14.5 ± 1 | 12.9 ± 0.9 | 11.7 ± 0.8 | 10.7 ± 0.7 | 9.6 ± 0.7 | 18.4 ± 1.3 | 16.2 ± 1.1
C#CCCC [1-pentyne] + CCCCCC[n+]1ccc2ccccc2c1.N#C[S-] | 2.91 ± 0.2 | 2.97 ± 0.2 | 3.03 ± 0.21 | 3.07 ± 0.21 | 3.14 ± 0.21 | 2.79 ± 0.19 | 2.85 ± 0.19
CC(C)CC(C)(C)C [2,2,4-trimethylpentane] + CCCCCC[n+]1ccc2ccccc2c1.N#C[S-] | 68.6 ± 4.7 | 57.7 ± 4 | 50.8 ± 3.5 | 44.5 ± 3 | 39.1 ± 2.7 | 96.5 ± 6.6 | 79.7 ± 5.5
CCC(C)(C)C [2,2-dimethylbutane] + CCCCCC[n+]1ccc2ccccc2c1.N#C[S-] | 57.2 ± 3.9 | 45.5 ± 3.1 | 37.9 ± 2.6 | 31.2 ± 2.1 | 25.6 ± 1.8 | 91.5 ± 6.3 | 72.2 ± 4.9
CCOC(C)(C)C [2-ethoxy-2-methylpropane] + CCCCCC[n+]1ccc2ccccc2c1.N#C[S-] | 17.2 ± 1.2 | 15.7 ± 1.1 | 14.7 ± 1 | 13.8 ± 0.9 | 12.8 ± 0.9 | 20.6 ± 1.4 | 18.6 ± 1.3
CCCCC(C)=O [2-hexanone] + CCCCCC[n+]1ccc2ccccc2c1.N#C[S-] | 2.62 ± 0.18 | 2.63 ± 0.18 | 2.64 ± 0.18 | 2.65 ± 0.18 | 2.65 ± 0.18 |  | 
CCC(C)(C)OC [2-methoxy-2-methylbutane] + CCCCCC[n+]1ccc2ccccc2c1.N#C[S-] | 9.01 ± 0.61 | 8.58 ± 0.59 | 8.36 ± 0.57 | 8.13 ± 0.55 | 7.85 ± 0.54 | 9.8 ± 0.67 | 9.34 ± 0.64

SMILES | activity coefficient (328.15 K) | activity coefficient (338.15 K) | activity coefficient (348.15 K) | activity coefficient (358.15 K) | activity coefficient (368.15 K) | activity coefficient (308.15 K) | activity coefficient (318.15 K)
COC(C)(C)C [2-methoxy-2-methylpropane] + CCCCCC[n+]1ccc2ccccc2c1.N#C[S-] | 7.65 ± 0.52 | 7.18 ± 0.49 | 6.99 ± 0.48 | 6.61 ± 0.45 | 6.28 ± 0.43 | 8.61 ± 0.59 | 8.13 ± 0.55
CCCC(=O)CC [3-hexanone] + CCCCCC[n+]1ccc2ccccc2c1.N#C[S-] | 2.86 ± 0.19 | 2.88 ± 0.2 | 2.89 ± 0.2 | 2.9 ± 0.2 | 2.91 ± 0.2 |  | 
CCC(C)CC [3-methylpentane] + CCCCCC[n+]1ccc2ccccc2c1.N#C[S-] | 37.8 ± 2.6 | 31.9 ± 2.2 | 27.9 ± 1.9 | 24.7 ± 1.7 | 21.5 ± 1.5 | 52.3 ± 3.6 | 43.4 ± 3
CC(C)=O [acetone] + CCCCCC[n+]1ccc2ccccc2c1.N#C[S-] | 1.33 ± 0.09 | 1.31 ± 0.09 | 1.3 ± 0.08 | 1.3 ± 0.08 | 1.28 ± 0.08 |  | 
CC#N [acetonitrile] + CCCCCC[n+]1ccc2ccccc2c1.N#C[S-] | 1.02 ± 0.06 | 1.01 ± 0.06 | 1 ± 0.06 | 0.994 ± 0.062 | 0.982 ± 0.062 |  | 
c1ccccc1 [benzene] + CCCCCC[n+]1ccc2ccccc2c1.N#C[S-] | 1.47 ± 0.1 | 1.48 ± 0.1 | 1.48 ± 0.1 | 1.48 ± 0.1 | 1.49 ± 0.1 |  | 
CCCCO [butan-1-ol] + CCCCCC[n+]1ccc2ccccc2c1.N#C[S-] | 0.846 ± 0.054 | 0.829 ± 0.053 | 0.812 ± 0.053 | 0.802 ± 0.052 | 0.788 ± 0.051 |  | 
C1CCCCCC1 [cycloheptane] + CCCCCC[n+]1ccc2ccccc2c1.N#C[S-] | 14.5 ± 1 | 13.4 ± 0.9 | 12.6 ± 0.9 | 11.9 ± 0.8 | 11.3 ± 0.8 | 17 ± 1.2 | 15.8 ± 1.1
C1CCCCC1 [cyclohexane] + CCCCCC[n+]1ccc2ccccc2c1.N#C[S-] | 13.3 ± 0.9 | 12.4 ± 0.8 | 11.6 ± 0.8 | 10.8 ± 0.7 | 10.2 ± 0.7 | 15.4 ± 1.1 | 14.2 ± 1
C1=CCCCC1 [cyclohexene] + CCCCCC[n+]1ccc2ccccc2c1.N#C[S-] | 6.6 ± 0.45 | 6.2 ± 0.42 | 5.9 ± 0.4 | 5.7 ± 0.39 | 5.5 ± 0.37 | 7.2 ± 0.49 | 6.9 ± 0.47
C1CCCCCCC1 [cyclooctane] + CCCCCC[n+]1ccc2ccccc2c1.N#C[S-] | 16.5 ± 1.1 | 15.4 ± 1.1 | 14.5 ± 1 | 13.7 ± 0.9 | 12.9 ± 0.9 | 18.8 ± 1.3 | 17.5 ± 1.2
C1CCCC1 [cyclopentane] + CCCCCC[n+]1ccc2ccccc2c1.N#C[S-] | 12.3 ± 0.8 | 11.5 ± 0.8 | 10.8 ± 0.7 | 10.2 ± 0.7 | 9.6 ± 0.65 | 14.7 ± 1 | 13.4 ± 0.9
CCCCCCCCCC [decane] + CCCCCC[n+]1ccc2ccccc2c1.N#C[S-] | 90.4 ± 6.2 | 84.1 ± 5.8 | 78.4 ± 5.4 | 73.4 ± 5 | 68.1 ± 4.7 | 105 ± 7 | 96.7 ± 6.6
CCOCC [diethyl ether] + CCCCCC[n+]1ccc2ccccc2c1.N#C[S-] | 6.69 ± 0.46 | 6.34 ± 0.43 | 6.15 ± 0.42 | 5.91 ± 0.4 | 5.66 ± 0.39 | 7.48 ± 0.51 | 7.07 ± 0.48
CC(C)OC(C)C [diisopropyl ether] + CCCCCC[n+]1ccc2ccccc2c1.N#C[S-] | 20.5 ± 1.4 | 17.6 ± 1.2 | 16.5 ± 1.1 | 15.7 ± 1.1 | 14.1 ± 1 | 23.7 ± 1.6 | 21.2 ± 1.4
CCCOCCC [dipropyl ether] + CCCCCC[n+]1ccc2ccccc2c1.N#C[S-] | 14.2 ± 1 | 13.2 ± 0.9 | 12.6 ± 0.9 | 11.9 ± 0.8 | 11.3 ± 0.8 | 15.9 ± 1.1 | 14.9 ± 1
CCO [ethanol] + CCCCCC[n+]1ccc2ccccc2c1.N#C[S-] | 0.6 ± 0.042 | 0.59 ± 0.042 | 0.581 ± 0.041 | 0.574 ± 0.041 | 0.566 ± 0.041 |  | 
